Laboratory results taken from US9308215B2, “Avermectins and milbemycins as anti-mycobacterial agents” (priority 2013, dated 2016).
Converted amounts (≈) assume the structure as drawn. Where two headings read alike, the source gives them in different places.

Columns and labels:
E. coli = assay: microbe, parasite or virus in culture; format: cell-based, Escherichia coli; conditions: Escherichia coli, read-out: In vitro MIC90
A. baumannii = assay: microbe, parasite or virus in culture; format: cell-based, Acinetobacter baumannii; conditions: Acinetobacter baumannii, ATCC1960, read-out: In vitro MIC90
P. aeruginosa = assay: microbe, parasite or virus in culture; format: cell-based, Pseudomonas aeruginosa; conditions: Pseudomonas aeruginosa, read-out: In vitro MIC90
S. lividans = assay: microbe, parasite or virus in culture; format: cell-based, Streptomyces lividans; conditions: Streptomyces lividans, read-out: In vitro MIC90
R. jostii = assay: microbe, parasite or virus in culture; format: cell-based, Rhodococcus jostii; conditions: Rhodococcus jostii, read-out: In vitro MIC90
K. rhizophila = assay: microbe, parasite or virus in culture; format: cell-based, Kocuria rhizophila; conditions: Kocuria rhizophila, read-out: In vitro MIC90
S. aureus = assay: microbe, parasite or virus in culture; format: cell-based, Staphylococcus aureus; conditions: Staphylococcus aureus, ATCC25923, read-out: In vitro MIC90
M. smegmatis = assay: microbe, parasite or virus in culture; format: cell-based, Mycobacterium smegmatis; conditions: Mycolicibacterium smegmatis, MC^2155, read-out: In vitro MIC90
M. bovis BCG = assay: microbe, parasite or virus in culture; format: cell-based, Mycobacterium bovis; conditions: Mycobacterium tuberculosis variant bovis BCG, BCG, read-out: In vitro MIC90
M. tuberculosis = assay: microbe, parasite or virus in culture; format: cell-based, Mycobacterium tuberculosis; conditions: for MIC90: Mycobacterium tuberculosis
M. aurum = assay: MIC against mycobacterial species; format: cell-based; conditions: Mycolicibacterium aurum
M. avium = assay: MIC against mycobacterial species; format: cell-based, Mycobacterium avium; conditions: Mycobacterium avium
M. chelonae = assay: MIC against mycobacterial species; format: cell-based; conditions: Mycobacteroides chelonae
M. gordonae = assay: MIC against mycobacterial species; format: cell-based; conditions: Mycobacterium gordonae
M. intracellulare = assay: MIC against mycobacterial species; format: cell-based; conditions: Mycobacterium intracellulare
M. phlei = assay: MIC against mycobacterial species; format: cell-based; conditions: Mycolicibacterium phlei
[1] = system: M. tuberculosis H37Rv and mc25857 (an MDR isolate); format: cell-based, Mycobacterium tuberculosis
[2] = system: representative Gram-positive and Gram-negative bacteria; format: cell-based
[3] = 12 mg/kg oral, cited from earlier work
[4] = cited from earlier work
[5] = Rats, 10 mg/kg oral; cited from earlier work
[6] = Cats, cited from earlier work
[7] = cited from earlier work; remark: listed apart in the source
[8] = rats; cited from earlier work
[9] = cited from earlier work; remark: listed apart in the source
[10] = cats; cited from earlier work

CO[C@H]1C[C@H](O[C@@H]2/C(C)=C/C[C@@H]3C[C@@H](C[C@]4(CC[C@H](C)[C@@H](C5CCCCC5)O4)O3)OC(=O)[C@@H]3C=C(C)/C(=N/O)[C@H]4OC/C(=C\C=C\[C@@H]2C)[C@]43O)O[C@@H](C)[C@@H]1O [Selamectin]
MIC90 (E. coli): > 256 µg/mL
MIC90 (A. baumannii): > 256 µg/mL
MIC90 (P. aeruginosa): > 256 µg/mL
MIC90 (S. lividans): > 256 µg/mL
MIC90 (R. jostii): > 256 µg/mL
MIC90 (K. rhizophila): > 256 µg/mL
MIC90 (S. aureus): > 256 µg/mL
MIC90 (M. smegmatis): 4 µg/mL (≈ 5.19 µM)
MIC90 (M. bovis BCG): 4 µg/mL (≈ 5.19 µM)
activity in dose response curves compared to ivermectin and doramectin (M. tuberculosis; M. tuberculosis H37Rv and an MDR clinical isolate (FIG. 10)): increased activity
activity in dose response curves (M. tuberculosis; MDR clinical isolates BC-MDR2, BC-MDR3, BC-MDR4 and BC-MDR5 (FIG. 11)): consistently more active than ivermectin
MIC90 (M. tuberculosis; ERDMAN, read-out: In vitro MIC90, strain Erdman, WT): 2 µg/mL (≈ 2.6 µM)
MIC90 (M. tuberculosis; read-out: In vitro MIC90, strain 1254, WT): 2 to 4 µg/mL (≈ 2.6 to 5.19 µM)
MIC90 (M. tuberculosis; read-out: In vitro MIC90, strain BC-DS1 (drug-susceptible)): 2 µg/mL (≈ 2.6 µM)
MIC90 (M. tuberculosis; read-out: In vitro MIC90, strain BC-DS3 (drug-susceptible)): 1 to 2 µg/mL (≈ 1.3 to 2.6 µM)
MIC90 (M. tuberculosis; read-out: In vitro MIC90, strain BC-DS4 (drug-susceptible)): 1 to 2 µg/mL (≈ 1.3 to 2.6 µM)
MIC90 (M. tuberculosis; read-out: In vitro MIC90, strain BC-DS5 (drug-susceptible)): 2 to 4 µg/mL (≈ 2.6 to 5.19 µM)
MIC90 (M. tuberculosis; read-out: In vitro MIC90, strain CDC 1551, WT): 1 µg/mL (≈ 1.3 µM)
sensitivity of the ivermectin-less-sensitive strains (M. tuberculosis; strains CI15072, CI12081, BC-MDR2, BC-DS4 and BC-DS5): unaffected
MIC (M. aurum): 1 µg/mL (≈ 1.3 µM)
MIC (M. avium; ATCC25291, M. avium ATCC 25291): 16 µg/mL (≈ 20.8 µM)
MIC (M. avium; M. avium 702): 64 µg/mL (≈ 83.1 µM)
MIC (M. avium; M. avium 715): 128 µg/mL (≈ 166 µM)
MIC (M. chelonae): 2 µg/mL (≈ 2.6 µM)
MIC (M. gordonae): < 0.25 µg/mL
MIC (M. intracellulare; ATCC35761, M. intracellulare 1403 ATCC35761): 1 µg/mL (≈ 1.3 µM)
MIC (M. intracellulare; M. intracellulare D673): 2 µg/mL (≈ 2.6 µM)
MIC (M. intracellulare; M. intracellulare FM): 2 µg/mL (≈ 2.6 µM)
MIC (M. intracellulare; M. intracellulare 1403 Trudeau): 1 µg/mL (≈ 1.3 µM)
MIC (M. phlei): 4 µg/mL (≈ 5.19 µM)
bactericidal profile ([1]; 21-day kill curves, various concentrations, H37Rv): strongest bactericidal profile
bactericidal or bacteriostatic ([1]; in vitro against M. tuberculosis, survival kinetics): Bactericidal
Inhibitory effects [2]: not observed
safe dose extrapolated to a 70 kg adult (from 24 mg/kg in cats and dogs): 1,680 mg
safe dose extrapolated to humans (from 40 mg/kg/day in dogs): 2,800 mg/day
Cmax ([3]; Mouse (lung)): 7500 ng/mL
AUC ([3]; Mouse (plasma)): 62.2857 µg·h/mL
Cmax ([3]; Mouse (plasma)): 3714 ng/mL
AUC ([4]; Dogs female, 6 mg/kg (topical)): 8.903 µg·h/mL
Cmax ([4]; Dogs female, 6 mg/kg (topical)): 22.65 ng/mL
T½ ([4]; Dogs female, 6 mg/kg (topical)): 257.5 h
AUC ([4]; Dogs males, 6 mg/kg (topical)): 4.609 µg·h/mL
Cmax ([4]; Dogs males, 6 mg/kg (topical)): 12.72 ng/mL
T½ ([4]; Dogs males, 6 mg/kg (topical)): 291.4 h
AUC ([4]; Dogs, 24 mg/kg (topical)): 15.229 µg·h/mL
Cmax ([4]; Dogs, 24 mg/kg (topical)): 86.5 ng/mL
AUC ([4]; Dogs, 24 mg/kg oral): 227.901 µg·h/mL
Cmax ([4]; Dogs, 24 mg/kg oral): 7630 ng/mL
T½ ([4]; Dogs, 24 mg/kg oral): 45.7 h
Cmax [5]: >1000 ng/mL
T½ [5]: 10.3 h
AUC ([6]; 24 mg/kg (topical)): 743.349 µg·h/mL
Cmax ([6]; 24 mg/kg (topical)): 5513 ng/mL
AUC ([6]; 24 mg/kg oral): 1109.933 µg·h/mL
Cmax ([6]; 24 mg/kg oral): 11929 ng/mL
LD50 ([7]; mice): > 1,600 mg/kg body weight
dose well tolerated ([7]; mouse, in vivo): up to 300 mg/kg body weight
LD50 [8]: > 1,600 mg/kg body weight
oral dose found safe ([9]; 3-month repeated dose toxicity study in dogs): 40 mg/kg/day
doses reported to be safe ([9]; dogs): up to 24 mg/kg
toxicity in dogs lacking MDR1 P-glycoprotein / homozygous MDR1 mutation ([9]; ivermectin: extra-label use, selamectin, moxidectin: therapeutic doses): without any signs of toxicosis
doses reported to be safe [10]: up to 24 mg/kg
